Converted amounts (≈) assume the structure as drawn.

In assay [1] the test system is HeLa. The experiment in a line: Cytotoxicity against human HeLa cells after 96 hrs by MTT assay. Format: functional, cell-based.
For assay [2], the system named is P388. Description: Cytotoxicity against mouse P388 cells after 96 hrs by MTT assay. The assay is classed as functional, cell-based. The following applies: P388, 96 h. In general terms: Tetrazolium assays rely on reduction of a dye to a coloured formazan, in cell work by metabolically active cells.

`CCCCCCCCCCCCCCCC/C=C\CC/C=C\CCCC[C@@H]1OC[C@H](N)[C@@H]1O` [PENASIN]: the half-maximal inhibitory concentration (IC50) in assay [1] turned out to be 10 µg/mL (≈ 21.6 µM); in assay [2], 50 µg/mL (≈ 108 µM).
In the same order, the values of `CCCCCCCCCCCCCCCC/C=C(\Cl)CC/C=C\CCCC[C@@H]1OC[C@H](N)[C@@H]1O` [PENASIN B] are 10 µg/mL (≈ 20.1 µM) and 50 µg/mL (≈ 100 µM).

In general, IC50 refers to the point on the concentration scale where inhibition reaches its midpoint.

The values are drawn from ChEMBL document CHEMBL1641389, “Penasins A-E, long-chain cytotoxic sphingoid bases, from a marine sponge Penares sp” (J Nat Prod, 2010).
